Data from US9320771B2, “TTO-based wide spectrum therapeutics, disinfectants and anesthetics for use in aquaculture” (priority 2006, dated 2016).
Like-named read-outs stand apart in the source and are kept apart here.

Tests used:
[1] = system: atypical Aeromonas salmonicida; experiment: Culture and sensitivity test, zones of inhibition on T.S.A. culture media; assay type: cell-based; details: 24 h at 24° C.; for zone of inhibition at 30 µg/disc: Aeromonas salmonicida, 24 h, read-out: Zones of inhibition (mm) after 24 h
Protocol: Four TTO-based compositions of the present invention, namely Compositions A-D (See Example 7) were evaluated in their efficacy to inhibit and prevent growth of atypical Aeromonas salmonicida, the causative agent of ulcerative disease of carps on T.S.A. culture media. Every culture plate was inoculated with Gram-negative Aeromonas Bacteria obtained from ulcerated Goldfish. Plates were sterile cultures incubated for 24 h at a temperature of 24° C. Inhibition of the TTO-based compositions was compared simultaneously with 2 familiar anti-bacterial medications, namely (i) Tetracycline (30 μg per disc); and (ii), Norfloxacin (10 30 μg per disc). Comparison discs were supplemented in the lab with 20 to 30 μg of the TTO-based compositions each: 50% Composition D; 50% Composition C; and 66% Composition B (See Example 7).

[2] = system: Red-clawed Crayfish (Cherax Quadricarinatus); experiment: Growth rate of Red-clawed Crayfish; assay type: in vivo; details: compared to the control group as base reference
Protocol: In a separate experiment the growth rate of Red-clawed Crayfish treated with the TTO formulation was tested in comparison to an untreated tank and to two other disinfecting agents: formaldehyde and sodium bromide (e.g., commercially available Bromex™).

viral diseases of fish = details: cited from earlier work

For CCn1cc(C(=O)O)c(=O)c2cc(F)c(N3CCNCC3)cc21 [Norfloxacin], the “Zones of inhibition (mm) after 24 h” value ([1]; 10 30 μg per disc, listed as Nx.) was 20 mm and the zone of inhibition at 30 µg/disc ([1]; 10 30 μg per disc) was 28 mm.

For CN(C)[C@@H]1C(O)=C(C(N)=O)C(=O)[C@@]2(O)C(O)=C3C(=O)c4c(O)cccc4[C@@](C)(O)[C@H]3C[C@@H]12 [Tetracycline], the “Zones of inhibition (mm) after 24 h” value ([1]; 30 μg per disc) was 22 mm and the zone of inhibition at 30 µg/disc ([1]; 30 μg per disc) was 18 mm.

In the case of C=O [formaldehyde], the growth rates [2] is reported as “about 0.08 % per day”.

In the case of CN(C)c1ccc(C(=C2C=CC(=[N+](C)C)C=C2)c2ccccc2)cc1 [malachite green], the “effectiveness against viral diseases of fish” value (viral diseases of fish) is listed as “not effective”.
